Tests used:
[1] = tested on: Staphylococcus aureus; experiment: Antimicrobial activity against Staphylococcus aureus at 100 ug/disk; format: functional; details: read-out: IZ
[2] = tested on: Streptococcus pyogenes; experiment: Antimicrobial activity against Streptococcus pyogenes at 100 ug/disk; format: functional; details: read-out: IZ
[3] = tested on: Escherichia coli; experiment: Antimicrobial activity against Escherichia coli at 100 ug/disk; format: functional; details: read-out: IZ
[4] = tested on: Candida albicans; experiment: Antimicrobial activity against Candida albicans at 100 ug/disk; format: functional; details: read-out: IZ
[5] = tested on: Trichophyton mentagrophytes; experiment: Antimicrobial activity against Trichophyton mentagrophytes at 100 ug/disk; format: functional; details: read-out: IZ
[6] = Inhibition of reverse transcriptase at 1 mg/ml; parameters: scale not given: the % may be the effect or the level left
[7] = tested on: Nippostrongylus brasiliensis; experiment: Antihelminthic activity against Nippostrongylus brasiliensis 4 instar larvae assessed as reduction in motility at 50 ug/mL; format: functional; parameters: scale not given: the % may be the effect or the level left
[8] = tested on: Nippostrongylus brasiliensis; experiment: Antihelminthic activity against Nippostrongylus brasiliensis 4 instar larvae assessed as reduction in viability at 50 ug/mL; format: functional
[9] = tested on: Nippostrongylus brasiliensis; experiment: Antihelminthic activity against Nippostrongylus brasiliensis 4 instar larvae assessed as reduction in cast formation at 50 ug/mL; format: functional; parameters: scale not given: the % may be the effect or the level left
[10] = tested on: Candida albicans; experiment: Antimicrobial activity against Candida albicans at 10 ug/disk; details: read-out: IZ
[11] = tested on: Trichophyton mentagrophytes; experiment: Antimicrobial activity against Trichophyton mentagrophytes at 10 ug/disk; format: functional; details: read-out: IZ
[12] = tested on: Streptococcus pyogenes; experiment: Antimicrobial activity against Streptococcus pyogenes at 10 ug/disk; format: functional, organism-based

Question: With `CC/C=C/CCCCCCC[C@@H](O)[C@H](C)N` (relative stereo) [XETOAMINOL A] as the compound, how does the zone of inhibition at 100 µg/disc [1] read?
Answer: 3 mm

Question: And the zone of inhibition at 100 µg/disc [2]?
Answer: 4 mm

Question: And the zone of inhibition at 100 µg/disc [3]?
Answer: 7 mm

Question: And the zone of inhibition at 100 µg/disc [4]?
Answer: 7 mm

Question: What about the zone of inhibition at 100 µg/disc [5] of the same compound?
Answer: 13 mm

Question: And the Activity [6]?
Answer: 97%

Question: What about the Activity [7] of the same compound?
Answer: 100%

Question: And the Activity [8]?
Answer: 100%

Question: What about the Activity [9] of the same compound?
Answer: 90%

Question: For `Clc1ccc(COC(Cn2ccnc2)c2ccc(Cl)cc2Cl)c(Cl)c1` (stereo not drawn) [MICONAZOLE], which zone of inhibition at 10 µg/disc [10] is on record?
Answer: 10 mm

Question: What about the zone of inhibition at 10 µg/disc [11] of the same compound?
Answer: 11 mm

Question: For `CCCCCCCCCCC[C@@H](O)[C@H](C)N` (relative stereo), which Activity [6] is on record?
Answer: 95%

Question: Which inhibition zone (IZ) [12] does the source give for GENTAMICIN here?
Answer: 10 mm
